Entries after “also recorded” stand apart in the source; their conditions may differ.
Assays:
[1] = system: misfolded Tau in SH-SY5Y cell line overexpressing full-length human Tau P301L; experiment: Reduction of intracellular misfolded Tau; format: cell-based; conditions: 20 nM, 72 hours, differentiated P301L SH-SY5Y cells, MC1 antibody, vs DMSO control
Protocol: The SH-SY5Y cell line overexpressing the full-length form of human Tau carrying the P301L mutation were cultured in complete medium DMEM-F12 4.5 g/L Glutamax (Invitrogen), 15% FBS (Biochrom), 1% Peni/Strep (Invitrogen) supplemented with 2.5 μg/ml of G418 (Sigma-Aldrich) selection antibiotic. For the in vitro differentiation from neuroblastoma cells to neurons, cells were plated in 24-well plates (Costar 3337) on glass coverslips coated with Poly-D-Lysine at a seeding density of 2.5×10^3 cells. P301L SH-SY5Y cells were differentiated for 1 week at 37° C. in culture medium in presence of 10 μM retinoic acid (RA; Sigma, R2625). Every 48-72 h media was changed and fresh retinoic acid was added. For the treatment with compound 1, were dispensed on the cells at concentrations between 1-20 nM for 72 hours, with changing compounds every 24 h. After the incubation with Compound 1, cells were pre-fixed with 2% PFA for 5 min followed by a 15 min fixation with 4% PFA. […] Permeabilized fixed cells were then incubated overnight in 10% NGS/0.25% Triton X-100 in PBS with monoclonal anti-mouse MC1 antibody detected misfolded Tau (provided by Prof. Peter Davies, Albert Einstein College of Medicine, New York, USA) and polyclonal anti-rabbit total Tau (Abcam; ab64193) both diluted 1:1000.

[2] = molecular target: T1, Tau K18 fragment aggregates (amino acids 244 to 372 of human Tau441) (Homo sapiens, UniProt P10636); experiment: Tau K18 disaggregation assay by ThT; format: biochemical; conditions: ThT fluorescence; 2 μM K18 aggregates, 30 minutes at RT
T1 construct: encompassing amino acids 244 to 372 of the longest isoform (2N4R) of human Tau441; purchased Biotechne; host or cells: bacteria
Procedure, shortened: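 K18 (35 μM) pre-aggregated 24 h at 37 °C with heparin and DTT under shaking; 2 μM aggregates then exposed 30 min at RT to compound (400–0.1 μM) in PBS. Remaining aggregates read by ThT fluorescence (ex 440/em 485 nm); EC50 of percent disaggregation, one-site fit.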

rTg4510 mice [3] = experiment: In vivo efficacy: NFTs and neuroinflammation markers by immunohistochemistry; conditions: 100 mg/kg, immunohistochemistry (data not shown)
From the text: (§1) Double transgenic rTg4510 mice express the full-length human Tau carrying the P301L mutation (Tau4RON-P301L) under the control of the tet-inducible (or tetracycline-inducible system) CaMKII promoter (Ramsden et al., J. Neurosci., 2005·25(46):10637-10647). Single transgenic mice expressing only the tetracycline-controlled transactivator (tTA) were used as genotype controls. The study comprised 4 treatment groups (n=15 female for tTa group and n=33 female mice/group for the treatment) with the following group distribution (see Table 5). Mice were distributed over 5 cohorts and cages were composed with an average of 3 mice per cage. Compounds or vehicle control were administered bi-daily by gavage for 4 weeks starting at the age of 5 months.
After incubation of this mixture at room temperature for 1 hour, 25 μL of Streptavidin Donor beads (Perkin Elmer) at 25 μg/mL were added in the dark. Plates were analyzed after 30 minutes incubation using the EnSpire Alpha instrument and EnSpire Workstation version 3.00.

[4] = molecular target: T2, flTau aggregates (longest isoform of human Tau, 2N4R) (Homo sapiens, UniProt P10636); experiment: Full-length Tau (flTau) disaggregation assay by Thioflavin T (ThT); format: biochemical; conditions: ThT fluorescence; 60 nM flTau aggregates, 30 minutes at RT; read-out: flTau disaggregation EC50
T2 construct: 35 μM of recombinant full-length (fl) Tau in phosphate-buffered saline (PBS) were aggregated; purchased Biotechne; host or cells: bacteria
Procedure, shortened: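 Recombinant 2N4R Tau (35 μM) pre-aggregated 72 h at 37 °C with 35 μM heparin and 10 mM DTT under shaking. Aggregates (60 nM final) incubated 30 min at RT in PBS with compound (20–0.0012 μM), then ThT added; fluorescence read at ex 440/em 485 nm and EC50 fitted to one-site model.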

rTg4510 mice [5] = experiment: In vivo efficacy: aggregated Tau in cortical total brain homogenate (AlphaLISA); conditions: 100 mg/kg bi-daily by gavage for 4 weeks
From the text: In Vivo Efficacy of the Compounds of the Present Invention
as §1, with “months. […]” for “months.”
To prepare cortical total brain homogenates (Cx-TBH), frozen brains were resuspended in 9 volumes/weight of ice-cold homogenization buffer [25 mM Tris-HCl pH 7.4, 150 mM NaCl, 1 mM EDTA, 1 mM EGTA containing phosphatase inhibitors (30 mM NaF, 0.2 mM Na3VO4, 1 nM Okadaic acid, 1 mM PMSF, 5 mM Na4P2O7) and protease inhibitor cocktail (Complete™, Roche)] and homogenized in Eppendorf tubes with a VWR pellet mixer (47747-370). […] Aggregated Tau in total cortical homogenate was quantified using the following antibody pairs: HT7-Acceptor beads+biotin (BT)-HT7-donor beads. […]

T2 sequence (P10636 1-441 isoform P10636-8): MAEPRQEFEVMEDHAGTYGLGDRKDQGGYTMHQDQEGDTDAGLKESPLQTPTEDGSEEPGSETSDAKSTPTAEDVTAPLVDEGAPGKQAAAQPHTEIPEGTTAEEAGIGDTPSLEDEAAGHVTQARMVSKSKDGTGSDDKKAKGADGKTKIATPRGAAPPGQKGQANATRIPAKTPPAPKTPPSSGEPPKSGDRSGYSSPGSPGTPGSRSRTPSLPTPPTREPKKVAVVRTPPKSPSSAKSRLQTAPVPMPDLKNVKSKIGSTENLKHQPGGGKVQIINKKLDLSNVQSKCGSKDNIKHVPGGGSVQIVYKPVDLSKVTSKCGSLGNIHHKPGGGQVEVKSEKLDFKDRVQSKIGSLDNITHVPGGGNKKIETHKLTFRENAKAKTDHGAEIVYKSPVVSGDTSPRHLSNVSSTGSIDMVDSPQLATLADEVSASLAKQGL
T1 sequence (P10636 561-689): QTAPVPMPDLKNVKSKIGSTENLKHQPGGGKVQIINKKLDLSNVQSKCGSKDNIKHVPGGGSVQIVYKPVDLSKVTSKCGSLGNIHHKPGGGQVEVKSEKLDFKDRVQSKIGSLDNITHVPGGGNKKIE

## c1ccc2c(C3CCN(c4ccc5oc(N6CCOCC6)nc5c4)CC3)n[nH]c2c1 [Example 1, 5-(4-(1H-indazol-3-yl)piperidin-1-yl)-2-morpholinobenzo[d]oxazole]
[1]
  Reduction of intracellular misfolded Tau: Reduction of intracellular misfolded Tau; also recorded: significantly different from DMSO control
[2]
  EC50: < 1000 nM
rTg4510 mice [3]
  NeuroFibrillary Tangles (NFTs): significant decrease
  neuroinflammation marker CD68: significant decrease
  neuroinflammation marker Iba1: significant decrease
[4]
  EC50: < 1000 nM
rTg4510 mice [5]; 100 mg/kg
  aggregated Tau in Cortical Total brain homogenate (Cx-TBH): significantly decreased
rTg4510 mice [5]; listed as Compound 1, 100 mg/kg
  aggregated Tau in Cortical Total brain homogenate (Cx-TBH): decreased of aggregated Tau
